{"source": "patent US20130209359A1", "about": "“Small Peptides Specifically Bind to Colorectal Cancers” (The Johns Hopkins University, priority 2007, published 2013)", "assay_type_in_all_cases": "cell-based", "key": {"[1]": {"system": "colon adenocarcinoma cell lines (Caco-2, HCT15, HCT116, LoVo, HT29)", "assay": "Binding and overnight release/retention of 32P-labeled decapeptide", "conditions": "two-hour incubation", "protocol": "(§1) Assay of the binding of ^32P-labeled decapeptides to cell lines: Cell lines were grown in complete medium containing 10% bovine fetal serum (heat inactivated). In each well of a 96-well plate, 10,000 cells from various cell lines were grown overnight in complete medium. Ten μl of the labeled-peptide in 1×PBS and 90 μl of complete medium were added to each well and incubated at 37° C. at various times of up to two hours. The peptide-medium was removed and one μl added to 100 ul gel loading buffer and counted by scintillation counting for the probe control or run on a polyacrylamide-SDS gel (Biorad). The adherent cells were briefly and gently washed with complete medium three times and some wells were assayed immediately by adding 100 μl of gel loading buffer to each well and run on a gel or counted in a scintillation counter. Other wells had 100 μl complete medium added and incubated for a further time period. Samples were either counted in a liquid scintillation counter or run on polyacrylamide-SDS gels, exposed to x-ray film, and the film developed."}, "[2]": {"system": "eleven nonbinding cell lines", "assay": "Binding of 32P-labeled decapeptides to cell lines", "protocol": "as §1"}, "[3]": {"system": "HT1080 fibrosarcoma cells", "assay": "Binding of 32P-labeled decapeptides to cell lines", "conditions": "two-hour incubation, washes", "protocol": "as §1"}, "[4]": {"system": "HCT116 colon adenocarcinoma cells", "assay": "Binding of 32P-labeled decapeptides to cell lines", "conditions": "two-hour incubation, washes; average", "protocol": "as §1"}, "[5]": {"system": "HeLa S3 cervical cancer cells", "assay": "Binding of 32P-labeled decapeptides to cell lines", "conditions": "two-hour incubation, washes; average", "protocol": "as §1"}, "[6]": {"system": "Caco-2 colon adenocarcinoma cell line", "assay": "Binding of 32P-labeled decapeptides to cell lines", "protocol": "as §1"}, "[7]": {"system": "human embryonic kidney cell line 293H", "assay": "Binding of 32P-labeled decapeptides to cell lines", "conditions": "two-hour incubation, washes", "protocol": "as §1"}, "[8]": {"conditions": "two hours incubation, three wash steps, overnight incubation in medium"}}, "data": [{"sequence": "GSRRASVASA (synthetic or recombinant sequence) [MA5]", "values": [{"measurement": "retention of radioactivity (in words)", "setting": "[1]; five of sixteen cell lines", "value": "very strong retention of radioactivity"}, {"measurement": "initially retained radioactive counts retained by cells", "setting": "[1]; washes, overnight incubation", "value": "approximately 12%"}, {"measurement": "average cpm of the eleven nonbinding cell lines", "setting": "[2]; two-hour incubation, 10,000 cells, washed three times", "value": 365, "unit": "cpm"}, {"measurement": "mean cpm values of blank wells and nonbinding cell lines", "setting": "[2]; two-hour incubation, washes", "value": "less than 550 cpm"}, {"measurement": "32P counts per minute (cpm) remaining bound", "setting": "[3]", "value": 367, "unit": "cpm"}, {"measurement": "32P counts per minute (cpm) remaining bound", "setting": "[4]", "value": "131,998 cpm per 10,000 cells"}, {"measurement": "32P counts per minute (cpm) remaining bound", "setting": "[5]", "value": "534 cpm per 10,000"}, {"measurement": "retained counts per hour per cell", "setting": "[6]; after overnight incubation", "value": "348 counts per hour, per cell"}, {"measurement": "retained counts extrapolated per cell per day", "setting": "[6]; after overnight incubation, extrapolated", "value": "over 8,300 counts per cell per day"}, {"measurement": "percentage of the total radioactive counts present in the incubation well retained by cells", "setting": "[6]; after two-hour incubation", "value": "approximately 18%"}, {"measurement": "time to plateau of 32P-peptide release into medium", "setting": "[6]; after washing", "value": "≤ 24", "unit": "h"}, {"measurement": "retained counts per cell extrapolated over a potential 2-week exposure period", "setting": "[6]; extrapolated over 2 weeks", "value": "over 87,000 counts per cell"}, {"measurement": "time by which the majority of total released counts are released", "setting": "[6]; release after washing over a 48-hour time period", "value": "released by nine hours of incubation"}, {"measurement": "cpm retained by cells after overnight incubation", "setting": "[6]; triplicate wells containing 10,000 cells each, three washes, overnight at 37 C", "value": "58,305 cpm"}, {"measurement": "relative binding among decapeptides (in words)", "setting": "[6]; two hour incubation", "value": "most efficient binding decapeptide"}, {"measurement": "radioactive dose transferred per cell", "setting": "[6]; two hour incubation, wash, immediate determination of retained radioactivity", "value": "over 29 counts per minute per cell"}, {"measurement": "originally retained 32P isotope released", "setting": "[6]; [8]", "value": 88, "unit": "%"}, {"measurement": "originally retained 32P isotope retained by cells", "setting": "[6]; [8]", "value": 12, "unit": "%"}, {"measurement": "retention difference between decapeptide variants", "setting": "[6]; two hours' incubation, variant MA2 vs. variant MA5", "value": 70, "unit": "fold"}, {"measurement": "32P counts per minute (cpm) remaining bound", "setting": "[6]; two-hour incubation, washes with complete medium, average of triplicate wells", "value": "298,639 cpm per 10,000 cells"}, {"measurement": "32P counts per minute (cpm) remaining bound", "setting": "[7]", "value": "429 cpm per 10,000 cells"}]}]}
